# Assay results: publication PMC3058872 (Archives of biochemistry and biophysics, 2010)
# Key:
# EI^Ntr (Enzyme I^Ntr) [1] = target: T1, EI^Ntr (Enzyme I^Ntr) (Escherichia coli, UniProt P37177, H356A); assay: intrinsic Trp fluorescence titration; format: binding
# EI^Ntr (Enzyme I^Ntr) [2] = target: T1, EI^Ntr (Enzyme I^Ntr); assay: thermal unfolding followed by Trp fluorescence; format: binding; conditions: hydrogenated protein, 150 μM PEP, 20 mM Tris-Cl pH 8, 2 mM MgCl2, scan 30 °C/h
# T1 sequence (P37177 170-748 H356A limits assumed): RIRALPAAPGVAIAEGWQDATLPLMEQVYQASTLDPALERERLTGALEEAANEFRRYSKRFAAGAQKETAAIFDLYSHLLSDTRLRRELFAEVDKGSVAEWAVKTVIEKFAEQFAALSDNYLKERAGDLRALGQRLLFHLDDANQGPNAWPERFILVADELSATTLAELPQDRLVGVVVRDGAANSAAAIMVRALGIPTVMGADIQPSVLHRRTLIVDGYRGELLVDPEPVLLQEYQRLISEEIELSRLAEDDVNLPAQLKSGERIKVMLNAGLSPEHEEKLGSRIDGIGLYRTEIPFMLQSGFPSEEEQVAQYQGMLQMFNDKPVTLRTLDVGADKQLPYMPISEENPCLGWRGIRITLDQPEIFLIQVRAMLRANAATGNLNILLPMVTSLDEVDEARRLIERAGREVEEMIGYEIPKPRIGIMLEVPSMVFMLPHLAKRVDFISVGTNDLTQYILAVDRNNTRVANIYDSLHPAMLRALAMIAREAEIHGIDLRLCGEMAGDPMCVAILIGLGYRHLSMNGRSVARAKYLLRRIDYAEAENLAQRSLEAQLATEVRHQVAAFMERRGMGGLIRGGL
smiles,measurement,setting,value
C=C(OP(=O)(O)O)C(=O)O [PEP],Kd,EI^Ntr (Enzyme I^Ntr) [1],21 µM
same,stabilization due to PEP binding (dTm),EI^Ntr (Enzyme I^Ntr) [2],4.04 °C
